Experimental data taken from patent US11642343B2, “Methods of treating splenomegaly” (Telios Pharma, Inc., priority 2020, dated 2023).

Experiments:
[1] = test system: Hel-92 (V617F mut) cells; assay: In vitro inhibition of cell migration towards SDF-1 (CXCL12) through a permeable membrane; conditions: FIG. 1A and 1B
[2] = biological target: T1, BTK (Homo sapiens, UniProt Q06187); assay: Inhibition of BTK phosphorylation (activation) in healthy B-cells; type: cell-based; design: endogenous in cells; conditions: healthy PBMC incubated two hours with 10 minutes of αIgM and H2O2 stimulation
Method: (§1) Inhibition of BTK phosphorylation (activation) by Compound No. 128 (1-(4-(((6-amino-5-(4-phenoxyphenyl)pyrimidin-4-yl)amino)methyl)-4-fluoropiperidin-1-yl)prop-2-en-1-one) was assessed in healthy B-cells and in myeloid cell lines MOLM-13 basal and Hel-92 basal. Compound No. 128 was incubated with the myeloid cells lines for two hours with no stimulation and with healthy PBMC5 for two hours with 10 minutes of αIgM and H2O2 stimulation.

[3] = test system: stimulated whole blood; assay: In vitro cytokine production in stimulated whole blood; type: cell-based; conditions: 24 hour incubation, FIG. 4
Method: The impact on in vitro cytokine production after exposure to Compound No. 128 was assessed in stimulated whole blood following a 24 hour incubation.

[4] = biological target: T1, BTK; assay: Inhibition of BTK phosphorylation (activation) in myeloid cell line Hel-92 basal; type: cell-based; design: endogenous in cells; host or cells: MOLM-13; conditions: incubated two hours with no stimulation
Method: as §1

[5] = biological target: T1, BTK; assay: Inhibition of BTK phosphorylation (activation) in myeloid cell line MOLM-13 basal; type: cell-based; design: endogenous in cells; host or cells: MOLM-13; conditions: incubated two hours with no stimulation
Method: as §1

[6] = test system: CD11a (LFA-1), CD62L (L-selectin), and CD49d (VLA-4); type: in vivo, human; conditions: monocytes from blood of treated COVID-19 patients; FIG. 3
[7] = test system: MV-411 cells; assay: Fibronectin release: detachment of cells from fibronectin-coated plates; type: cell-based; conditions: MV-411 cells on fibronectin-coated plates; 1, 2, or 5 μm for two hours at 37° C.; CellTiter Glo; FIG. 2
Method: Fibronectin is an important component of the microenvironment extracellular matrix and attaches to cells through VLA-4 (integrin α4β1). Detachment of cells from fibronectin after exposure to Compound No. 128 was assessed by plating 1×10^6 MV-411 cells on fibronectin-coated plates (3 replicates). The cells were allowed to adhere overnight at 37° C. and then unadhered cells were washed away. Next, attached cells were treated with DMSO or Compound No. 128 (1, 2, or 5 μm) for two hours at 37° C. Detached cells were then collected and cell numbers determined using CellTiter Glo.

T1 sequence (Q06187 whole entry): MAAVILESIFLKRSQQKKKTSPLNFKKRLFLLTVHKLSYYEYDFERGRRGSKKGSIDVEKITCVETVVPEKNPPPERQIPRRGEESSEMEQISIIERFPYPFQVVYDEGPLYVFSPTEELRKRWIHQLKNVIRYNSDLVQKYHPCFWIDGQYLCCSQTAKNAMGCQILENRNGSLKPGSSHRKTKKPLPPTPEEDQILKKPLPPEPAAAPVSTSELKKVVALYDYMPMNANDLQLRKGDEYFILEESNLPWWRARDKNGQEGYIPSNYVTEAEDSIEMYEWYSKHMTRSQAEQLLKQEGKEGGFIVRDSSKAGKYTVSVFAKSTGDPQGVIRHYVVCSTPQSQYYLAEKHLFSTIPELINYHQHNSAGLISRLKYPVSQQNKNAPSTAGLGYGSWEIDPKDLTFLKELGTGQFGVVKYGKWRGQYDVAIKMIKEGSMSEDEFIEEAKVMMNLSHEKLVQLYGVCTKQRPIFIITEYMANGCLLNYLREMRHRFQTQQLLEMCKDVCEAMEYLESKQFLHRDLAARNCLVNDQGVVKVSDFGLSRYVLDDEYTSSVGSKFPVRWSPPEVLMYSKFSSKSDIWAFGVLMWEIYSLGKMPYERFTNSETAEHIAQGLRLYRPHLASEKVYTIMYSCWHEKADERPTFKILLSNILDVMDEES

In the case of C=CC(=O)N1CCC(F)(CNc2ncnc(N)c2-c2ccc(Oc3ccccc3)cc2)CC1 [Compound No. 128, 1-(4-(((6-amino-5-(4-phenoxyphenyl)pyrimidin-4-yl)amino)methyl)-4-fluoropiperidin-1-yl)prop-2-en-1-one], the “inhibition of cell migration towards SDF-1” value [1] is reported as “inhibit cell migration towards SDF-1”, the EC50 [2] is reported as 0.0169 µM and the “cytokine and chemokine production” value [3] is reported as “decreased cytokine and chemokine production upon cellular stimulation”. The EC50 [4] was 0.0197 µM, the EC50 [5] was 0.0214 µM and the “levels of surface molecules CD11a (LFA-1), CD62L (L-selectin), CD49d (VLA-4)” value [6] was “reduced levels of surface molecules in some patients”. For the same molecule, the “detachment of cells from fibronectin” value [7] was “cells detached from fibronectin”.
